Reference: EP2891654B1, “Optically pure benzyl-4-chlorophenyl-C-glucoside derivatives as SGLT inhibitors (diabetes mellitus)” (Xuanzhu Pharma Co., Ltd., priority 2014, dated 2015)

Tests used:
[1] = rat in-vivo pharmacokinetic assay (PO); details: Sprague-Dawley (SD), male SD rats, 10 mg/kg; for Cmax: peak concentration in the plasma; for AUC(0-t) / AUC(0-inf) / half-life / Tmax: plasma; for AUC(0-t): area under curve from time=0→t; for AUC(0-inf): area under curve from time=0→∞; for Tmax: time to peak the concentration in the plasma
Procedure: Assay animals: 6-8 weeks aged male SD rats (purchased from Vital River Laboratories), 3 rats per compound, weighing 200-240g.
Solvent: 0.5% MC(methyl cellulose) solution + 0.1% SDS (sodium dodecyl sulfate).
Intragastric administration (PO): See Table 2 Table 2 Administration of compounds in the rat PK (pharmacokinetic) assay
Blood collection: each of 200 µL whole blood were collected at 0.17hr, 0.5hr, 1hr, 2hr, 4hr, 6hr, 8hr, 24hr, 30hr, 48hr, 54hr and 72hr. The collected blood samples were centrifuged at 4°C at 8000rpm in a low temperature high-speed centrifuge (5415R, Eppendorf) for 6mins to separate the blood plasma. The separated plasma was preserved at -80 °C in a refrigerator.
20µL of the plasma was carefully taken out, to which was added 600µL of an internal standard MTBE (methyl tert-butyl ether) solution (containing internal standard dapagliflozin 25ng/ml). The plasma was subjected to a vortex at 1500 rpm for 10mins, and then centrifuged at 12000 rpm for 5mins. 400µL of the supernatant was taken and blow-dried with nitrogen gas. The dried substance was redissolved with 200µL of a redissolving solution (acetonitrile:water=7:3). The solution was subjected to a vortex for 10mins, and analyzed with LC-MS/MS (API4000, Aplplied Biosystems). Table 3. Rat PK (pharmacokinetic) evaluation results (PO) for the compounds

SGLT-2 = biological target: T1, SGLT-2 (Homo sapiens, UniProt P31639); experiment: in-vitro assay: inhibition of sodium dependent [14C]-AMG uptake into CHO cells stably expressing human SGLT-2; assay type: cell-based; details: for IC50: CHO cells stably expressing human SGLT-2, [14C]-AMG uptake, 37°C, 1hr; for Selectivity: ratio SGLT-1 IC50 / SGLT-2 IC50
T1 construct: expressed in transfected cells
T1 sequence (P31639 1-672): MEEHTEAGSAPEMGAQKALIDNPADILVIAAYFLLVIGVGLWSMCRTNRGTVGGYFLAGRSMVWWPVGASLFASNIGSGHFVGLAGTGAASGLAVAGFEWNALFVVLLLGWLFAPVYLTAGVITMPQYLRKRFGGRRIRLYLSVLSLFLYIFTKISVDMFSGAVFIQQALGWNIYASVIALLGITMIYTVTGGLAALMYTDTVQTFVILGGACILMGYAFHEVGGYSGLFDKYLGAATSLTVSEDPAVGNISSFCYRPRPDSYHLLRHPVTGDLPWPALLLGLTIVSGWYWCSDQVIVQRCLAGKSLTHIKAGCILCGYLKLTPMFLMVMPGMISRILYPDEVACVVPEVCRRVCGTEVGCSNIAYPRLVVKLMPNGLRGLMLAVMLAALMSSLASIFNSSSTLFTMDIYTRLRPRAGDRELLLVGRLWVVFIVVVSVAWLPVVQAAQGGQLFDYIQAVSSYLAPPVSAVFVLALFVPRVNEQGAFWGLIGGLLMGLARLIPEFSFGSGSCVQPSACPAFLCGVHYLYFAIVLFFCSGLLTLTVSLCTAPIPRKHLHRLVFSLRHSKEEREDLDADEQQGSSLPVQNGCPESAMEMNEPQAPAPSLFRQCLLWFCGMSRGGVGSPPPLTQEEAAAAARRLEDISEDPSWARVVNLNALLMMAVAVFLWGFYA
Procedure: In the in-vitro assay for the pharmacological activities of the present compounds, the human SGLT-2 and SGLT-1 sequences were transfected to Chinese hamster ovary cells to express stably. By measuring inhibition of the sodium dependent adsorption of [^14C]-labeled […]-D-glucopyranoside (AMG) into the cells, the half-inhibition concentration IC50 was determined.
Buffer A (KRH-Na^+): 120 mM NaCl, 4.7 mM KCI, 1.2 mM MgCl2, 2.2 mM CaCl2, 10 mM HEPES (PH 7.4 with 1 mM Tris).
Buffer A- (KRH-NMG): 120 mM NMG, 4.7 mM KCl, 1.2 mM MgCl2, 2.2 mM CaCl2, 10 mM HEPES (PH 7.4 with 1 mM Tris).
Buffer D: 120 mM NaCl, 4.7 mM KCl, 1.2 mM MgCl2, 2.2 mM CaCl2, 10 mM HEPES, 0.5 mM phlorizin (PH 7.4 with 1 mM Tris).
Assay method: Human SGLT-2 and SGLT-1 sequences were stably expressed in the CHO cells. The cell culture was conducted in a 96-well plate for 12hr. The plate was washed with KRH-Na+ (Buffer A) or KRH-NMG (Buffer A-) buffering solution for three times, 200µL/well. Then the plate was added with a buffering solution containing Buffer A or Buffer A- plus [^14C]-AMG (10 µCi/mL), 100µL/well. The cell culture was conducted at 37°C for 1hr. Then, 100µL of an ice pre-cooled buffering solution (Buffer D) was added to terminate the assay. The plate was washed for five times. Then an ice pre-cooled lytic buffering solution (100mM NaOH solution) was added, 20 µL/well, and the centrifugation at 600rpm was conducted for 5mins. Then Microscint 40 solution was added, 80 µl/well, and the centrifugation at 600rpm was conducted for 5mins. Finally, the radioactivity of [^14C]-AMG was detected with MicroBeta Trilux (purchased from PerkinElmer Co. Ltd.) according to the scintillation counting method, and the half-inhibition concentration IC50 was calculated.

SGLT-1 = biological target: T2, SGLT-1 (Homo sapiens, UniProt P13866); experiment: in-vitro assay: inhibition of sodium dependent [14C]-AMG uptake into CHO cells stably expressing human SGLT-1; assay type: cell-based; details: 37°C, 1hr
T2 construct: expressed in transfected cells
T2 sequence (P13866 1-664): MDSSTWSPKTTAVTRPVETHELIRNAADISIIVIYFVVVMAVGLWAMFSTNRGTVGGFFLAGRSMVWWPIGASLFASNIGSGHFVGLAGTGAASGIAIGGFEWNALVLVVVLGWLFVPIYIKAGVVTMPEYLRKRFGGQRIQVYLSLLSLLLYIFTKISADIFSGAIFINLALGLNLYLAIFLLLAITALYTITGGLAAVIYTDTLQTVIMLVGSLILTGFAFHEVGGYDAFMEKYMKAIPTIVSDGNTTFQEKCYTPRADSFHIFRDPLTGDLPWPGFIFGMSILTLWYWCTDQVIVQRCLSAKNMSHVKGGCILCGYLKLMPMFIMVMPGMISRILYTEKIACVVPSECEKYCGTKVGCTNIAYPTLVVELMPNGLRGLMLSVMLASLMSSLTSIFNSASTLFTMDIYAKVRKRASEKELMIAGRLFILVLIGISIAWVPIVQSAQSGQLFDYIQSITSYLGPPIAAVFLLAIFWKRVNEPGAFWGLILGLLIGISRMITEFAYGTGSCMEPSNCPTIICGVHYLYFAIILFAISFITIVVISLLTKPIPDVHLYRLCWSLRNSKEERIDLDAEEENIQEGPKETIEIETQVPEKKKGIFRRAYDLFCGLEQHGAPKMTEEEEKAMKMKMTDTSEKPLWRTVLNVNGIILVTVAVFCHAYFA
Procedure: In the in-vitro assay for the pharmacological activities of the present compounds, the human SGLT-2 and SGLT-1 sequences were transfected to Chinese hamster ovary cells to express stably. By measuring inhibition of the sodium dependent adsorption of [^14C]-labeled […]-D-glucopyranoside (AMG) into the cells, the half-inhibition concentration IC50 was determined. […] Buffer D: 120 mM NaCl, 4.7 mM KCl, 1.2 mM MgCl2, 2.2 mM CaCl2, 10 mM HEPES, 0.5 mM phlorizin (PH 7.4 with 1 mM Tris). Assay method: Human SGLT-2 and SGLT-1 sequences were stably expressed in the CHO cells. […] The plate was washed for five times. […] Finally, the radioactivity of [^14C]-AMG was detected with MicroBeta Trilux (purchased from PerkinElmer Co. Ltd.) according to the scintillation counting method, and the half-inhibition concentration IC50 was calculated.

| Compound | Cmax [1] | AUC(0-t) [1] | AUC(0-inf) [1] | half-life [1] | Tmax [1] | IC50 (SGLT-2) | Selectivity (SGLT-2) | IC50 (SGLT-1) |
| --- | --- | --- | --- | --- | --- | --- | --- | --- |
| OC[C@H]1O[C@@H](c2ccc(Cl)c(Cc3ccc(OC4CC5CC5C4)cc3)c2)[C@H](O)[C@@H](O)[C@@H]1O (some centres unmarked) [Reference compound 2] | 4980 ng/mL | 69300 ng·h/mL | 69400 ng·h/mL | 8.18 h | 2 h |  |  |  |
| OC[C@H]1O[C@@H](c2ccc(Cl)c(Cc3ccc(O[C@@H]4C[C@@H]5C[C@@H]5C4)cc3)c2)[C@H](O)[C@@H](O)[C@@H]1O [Compound represented by formula (III), (2S,3R,4R,5S,6R)-2-(3-(4-(((1R,3r,5S)-bicyclo[3.1.0]hexan-3-yl)oxy)benzyl)-4-chlorophenyl)-6-(hydroxymethyl)tetrahydro-2H-pyran-3,4,5-triol] |  |  |  |  |  | 7.83 nM |  |  |
| OC[C@H]1OC(c2ccc(Cl)c(Cc3ccc(OC4CC5CC5C4)cc3)c2)[C@H](O)[C@@H](O)[C@@H]1O (some centres unmarked) [Reference compound 1] | 4140 ng/mL | 69600 ng·h/mL | 70300 ng·h/mL | 10.3 h | 2 h | 3.63 nM | 660.52 | 2400 nM |
| OC[C@H]1O[C@H](c2ccc(Cl)c(Cc3ccc(O[C@H]4C[C@@H]5C[C@@H]5C4)cc3)c2)[C@H](O)[C@@H](O)[C@@H]1O [Compound represented by formula (IV), (2R,3R,4R,5S,6R)-2-(3-(4-(((1R,3s,5S)-bicyclo[3.1.0]hexan-3-yl)oxy)benzyl)-4-chlorophenyl)-6-(hydroxymethyl)tetrahydro-2H-pyran-3,4,5-triol] |  |  |  |  |  | 1110 nM |  |  |
| OC[C@H]1O[C@@H](c2ccc(Cl)c(Cc3ccc(O[C@H]4C[C@@H]5C[C@@H]5C4)cc3)c2)[C@H](O)[C@@H](O)[C@@H]1O [Compound represented by formula (II), (2S,3R,4R,5S,6R)-2-(3-(4-(((1R,3s,5S)-bicyclo[3.1.0]hexan-3-yl)oxy)benzyl)-4-chlorophenyl)-6-(hydroxymethyl)tetrahydro-2H-pyran-3,4,5-triol] |  |  |  |  | 1 h | 2.5 nM | 6886.93 | 17200 nM |
| OC[C@H]1O[C@H](c2ccc(Cl)c(Cc3ccc(O[C@@H]4C[C@@H]5C[C@@H]5C4)cc3)c2)[C@H](O)[C@@H](O)[C@@H]1O [Compound represented by formula (V), (2R,3R,4R,5S,6R)-2-(3-(4-(((1R,3r,5S)-bicyclo[3.1.0]hexan-3-yl)oxy)benzyl)-4-chlorophenyl)-6-(hydroxymethyl)tetrahydro-2H-pyran-3,4,5-triol] |  |  |  |  |  | 282 nM |  |  |
